Test results as given in the CheMixHub viscosity set.
Where “and” joins values, the source holds several entries; their conditions need not be identical. Equal entries are not always repeated. ± gives the uncertainty stated by the source.

Experiment: xn = mol fraction of the nth substance listed

`Cc1cccc(C)n1` + O gave a viscosity (293.18 K, 101 kPa, x1 = 0.06338) of 2.838 ± 0.021 mPa·s, a viscosity (295.15 K, 101 kPa, x1 = 0.0183) of 1.357 ± 0.013 mPa·s and a viscosity (295.15 K, 101 kPa, x1 = 0.0403) of 1.932 ± 0.018 mPa·s. For the same molecule, the viscosity (295.15 K, 101 kPa, x1 = 0.0675) was 2.915 ± 0.024 mPa·s, the viscosity (295.15 K, 101 kPa, x1 = 0.0833) was 3.276 ± 0.038 mPa·s and the viscosity (295.15 K, 101 kPa, x1 = 0.144) was 4.298 ± 0.038 mPa·s. The viscosity (295.15 K, 101 kPa, x1 = 0.282) was 5.153 ± 0.047 mPa·s, the viscosity (295.15 K, 101 kPa, x1 = 0.402) was 4.278 ± 0.051 mPa·s and the viscosity (295.15 K, 101 kPa, x1 = 0.602) was 2.687 ± 0.044 mPa·s. The viscosity (296.18 K, 101 kPa, x1 = 0.06338) was 2.578 ± 0.019 mPa·s, the viscosity (298.12 K, 101 kPa, x1 = 0.3006) was 4.353 ± 0.064 mPa·s and the viscosity (298.15 K, 101 kPa, x1 = 0.02034) was 1.346 ± 0.013 mPa·s. It also gave a viscosity (298.15 K, 101 kPa, x1 = 0.0297) of 1.553 ± 0.02 mPa·s, a viscosity (298.15 K, 101 kPa, x1 = 0.05039) of 2.066 ± 0.02 mPa·s and a viscosity (298.15 K, 101 kPa, x1 = 0.07682) of 2.713 ± 0.027 mPa·s. It also gave a viscosity (298.15 K, 101 kPa, x1 = 0.1166) of 3.638 ± 0.039 mPa·s, a viscosity (298.15 K, 101 kPa, x1 = 0.1208) of 3.916 ± 0.043 mPa·s and a viscosity (298.16 K, 101 kPa, x1 = 0.5008) of 2.844 ± 0.04 mPa·s. The viscosity (298.17 K, 101 kPa, x1 = 0.3981) was 3.708 ± 0.053 mPa·s, the viscosity (298.18 K, 101 kPa, x1 = 0.06338) was 2.428 ± 0.018 mPa·s and the viscosity (298.19 K, 101 kPa, x1 = 0.0602) was 2.361 ± 0.03 mPa·s. For the same molecule, the viscosity (298.19 K, 101 kPa, x1 = 0.7887) was 1.038 ± 0.015 mPa·s, the viscosity (298.2 K, 101 kPa, x1 = 0.1001) was 3.14 ± 0.042 mPa·s and the viscosity (298.2 K, 101 kPa, x1 = 0.651) was 1.812 ± 0.026 mPa·s. The viscosity (298.21 K, 101 kPa, x1 = 0.0501) was 2.095 ± 0.027 mPa·s, the viscosity (298.23 K, 101 kPa, x1 = 0.2004) was 4.298 ± 0.063 mPa·s and the viscosity (299.18 K, 101 kPa, x1 = 0.06338) was 2.36 ± 0.017 mPa·s. The viscosity (300.12 K, 101.33 kPa, x1 = 0.0182) was 1.217 ± 0.01 mPa·s, the viscosity (300.18 K, 101 kPa, x1 = 0.06338) was 2.291 ± 0.017 mPa·s and the viscosity (301.18 K, 101 kPa, x1 = 0.06338) was 2.243 ± 0.017 mPa·s. For the same molecule, the viscosity (302.02 K, 101 kPa, x1 = 0.0297) was 1.415 ± 0.016 mPa·s, the viscosity (302.18 K, 101 kPa, x1 = 0.06338) was 2.182 ± 0.016 mPa·s and the viscosity (303.02 K, 101 kPa, x1 = 0.2004) was 3.54 ± 0.059 mPa·s. For the same molecule, the viscosity (303.05 K, 101 kPa, x1 = 0.0602) was 2.172 ± 0.027 mPa·s, the viscosity (303.08 K, 101 kPa, x1 = 0.1001) was 2.712 ± 0.038 mPa·s and the viscosity (303.12 K, 101.33 kPa, x1 = 0.0182) was 1.132 ± 0.009 mPa·s. The viscosity (303.17 K, 101 kPa, x1 = 0.0501) was 1.932 ± 0.023 mPa·s, the viscosity (303.17 K, 101 kPa, x1 = 0.3006) was 3.538 ± 0.057 mPa·s and the viscosity (303.18 K, 101 kPa, x1 = 0.06338) was 2.136 ± 0.016 mPa·s. It also gave a viscosity (303.19 K, 101 kPa, x1 = 0.3981) of 3.072 ± 0.043 mPa·s, a viscosity (303.19 K, 101 kPa, x1 = 0.5008) of 2.464 ± 0.034 mPa·s and a viscosity (303.23 K, 101 kPa, x1 = 0.7887) of 0.955 ± 0.014 mPa·s. It also gave a viscosity (303.26 K, 101 kPa, x1 = 0.651) of 1.593 ± 0.022 mPa·s, a viscosity (304.18 K, 101 kPa, x1 = 0.06338) of 2.093 ± 0.016 mPa·s and a viscosity (304.48 K, 101 kPa, x1 = 0.06338) of 2.084 ± 0.015 mPa·s. The viscosity (304.78 K, 101 kPa, x1 = 0.06338) was 2.076 ± 0.015 mPa·s, the viscosity (304.98 K, 101 kPa, x1 = 0.06338) was 2.071 ± 0.015 mPa·s and the viscosity (305.18 K, 101 kPa, x1 = 0.06338) was 2.066 ± 0.015 mPa·s. For the same molecule, the viscosity (305.38 K, 101 kPa, x1 = 0.06338) was 2.063 ± 0.015 mPa·s, the viscosity (305.58 K, 101 kPa, x1 = 0.06338) was 2.064 ± 0.015 mPa·s and the viscosity (305.78 K, 101 kPa, x1 = 0.06338) was 2.065 ± 0.015 mPa·s. It also gave a viscosity (305.98 K, 101 kPa, x1 = 0.06338) of 2.065 ± 0.015 mPa·s, a viscosity (306.18 K, 101 kPa, x1 = 0.06338) of 2.058 ± 0.015 mPa·s and a viscosity (306.28 K, 101 kPa, x1 = 0.06338) of 2.074 ± 0.015 mPa·s. It also gave a viscosity (306.38 K, 101 kPa, x1 = 0.06338) of 2.083 ± 0.015 mPa·s, a viscosity (306.48 K, 101 kPa, x1 = 0.06338) of 2.088 ± 0.015 mPa·s and a viscosity (306.58 K, 101 kPa, x1 = 0.06338) of 2.101 ± 0.016 mPa·s. For the same molecule, the viscosity (306.68 K, 101 kPa, x1 = 0.06338) was 2.124 ± 0.016 mPa·s, the viscosity (306.78 K, 101 kPa, x1 = 0.06338) was 2.141 ± 0.016 mPa·s and the viscosity (306.83 K, 101 kPa, x1 = 0.06338) was 2.151 ± 0.016 mPa·s. For the same molecule, the viscosity (306.88 K, 101 kPa, x1 = 0.06338) was 2.183 ± 0.016 mPa·s, the viscosity (306.9 K, 101 kPa, x1 = 0.06338) was 2.198 ± 0.016 mPa·s and the viscosity (306.93 K, 101 kPa, x1 = 0.06338) was 2.22 ± 0.016 mPa·s. The viscosity (306.95 K, 101 kPa, x1 = 0.06338) was 2.242 ± 0.017 mPa·s, the viscosity (306.97 K, 101 kPa, x1 = 0.06338) was 2.27 ± 0.017 mPa·s and the viscosity (306.98 K, 101 kPa, x1 = 0.06338) was 2.291 ± 0.017 mPa·s. The viscosity (306.99 K, 101 kPa, x1 = 0.06338) was 2.316 ± 0.018 mPa·s, the viscosity (307 K, 101 kPa, x1 = 0.06338) was 2.344 ± 0.018 mPa·s and 2.36 ± 0.018 mPa·s and the viscosity (307.01 K, 101 kPa, x1 = 0.06338) was 2.384 ± 0.018 mPa·s and 2.396 ± 0.019 mPa·s and 2.405 ± 0.019 mPa·s. The viscosity (307.35 K, 101 kPa, x1 = 0.043) was 1.5 ± 0.02 mPa·s, the viscosity (307.35 K, 101 kPa, x1 = 0.0974) was 1.8 ± 0.03 mPa·s and the viscosity (307.65 K, 101 kPa, x1 = 0.0403) was 1.35 ± 0.02 mPa·s. The viscosity (307.65 K, 101 kPa, x1 = 0.105) was 1.95 ± 0.03 mPa·s, the viscosity (308.15 K, 101 kPa, x1 = 0.0349) was 1.2 ± 0.01 mPa·s and the viscosity (308.15 K, 101 kPa, x1 = 0.116) was 2.2 ± 0.03 mPa·s. For the same molecule, the viscosity (308.18 K, 101 kPa, x1 = 0.5008) was 2.071 ± 0.029 mPa·s, the viscosity (308.21 K, 101 kPa, x1 = 0.3981) was 2.587 ± 0.036 mPa·s and the viscosity (308.23 K, 101 kPa, x1 = 0.7887) was 0.881 ± 0.013 mPa·s. The viscosity (308.26 K, 101 kPa, x1 = 0.651) was 1.413 ± 0.02 mPa·s, the viscosity (309.15 K, 101 kPa, x1 = 0.0288) was 1.1 ± 0.01 mPa·s and the viscosity (309.15 K, 101 kPa, x1 = 0.131) was 2.57 ± 0.03 mPa·s. For the same molecule, the viscosity (311.15 K, 101 kPa, x1 = 0.0204) was 0.96 ± 0.01 mPa·s, the viscosity (311.15 K, 101 kPa, x1 = 0.155) was 2.47 ± 0.03 mPa·s and the viscosity (313.15 K, 101 kPa, x1 = 0.0185) was 0.88 ± 0.01 mPa·s. It also gave a viscosity (313.15 K, 101 kPa, x1 = 0.172) of 2.38 ± 0.03 mPa·s, a viscosity (313.25 K, 101 kPa, x1 = 0.5008) of 1.794 ± 0.024 mPa·s and a viscosity (313.31 K, 101 kPa, x1 = 0.3981) of 2.196 ± 0.03 mPa·s. For the same molecule, the viscosity (313.32 K, 101 kPa, x1 = 0.651) was 1.262 ± 0.018 mPa·s, the viscosity (313.34 K, 101 kPa, x1 = 0.7887) was 0.815 ± 0.012 mPa·s and the viscosity (318.3 K, 101 kPa, x1 = 0.5008) was 1.571 ± 0.021 mPa·s. For the same molecule, the viscosity (318.34 K, 101 kPa, x1 = 0.3981) was 1.902 ± 0.026 mPa·s, the viscosity (318.36 K, 101 kPa, x1 = 0.7887) was 0.758 ± 0.011 mPa·s and the viscosity (318.37 K, 101 kPa, x1 = 0.651) was 1.134 ± 0.016 mPa·s. It also gave a viscosity (319.15 K, 101 kPa, x1 = 0.017) of 0.73 ± 0.01 mPa·s, a viscosity (319.15 K, 101 kPa, x1 = 0.218) of 1.81 ± 0.02 mPa·s and a viscosity (323.15 K, 101 kPa, x1 = 0.013) of 0.63 ± 0.01 mPa·s. It also gave a viscosity (323.15 K, 101 kPa, x1 = 0.236) of 1.7 ± 0.02 mPa·s.
